Results on eight compounds are retold here after ChEMBL document CHEMBL3596094, “Nucleoside Diphosphate Prodrugs: Nonsymmetric DiPPro-Nucleotides” (J Med Chem, 2015).

The nature of series [1]: Cytotoxicity against human CEM/0 cells assessed as reduction in cell proliferation incubated for 4 to 5 days. To be noted: CEM/0 cells.
Series [2] can be described thus: Half life in presence of pig liver esterase assessed as half life for hydrolysis R1 intermediate by RP-18-HPLC method. It counts as ADME. To be noted: isolated protein.
Series [3] is described as follows: Half life in presence of pig liver esterase assessed as half life for DiPPro-NDP by RP-18-HPLC method. It counts as ADME.
Series [4] can be described thus: Half life in human CEM/0 cell extracts incubated at 37 degC by RP-18-HPLC method. It counts as ADME, CCRF-CEM.
For series [5], the system named is Human immunodeficiency virus 1. Description: Antiviral activity against HIV1 3B infected in human CEM/0 cells assessed as reduction in virus-induced giant cell formation incubated for 4 to 5 days. To be noted: Human immunodeficiency virus 1, 3B, CCRF-CEM. It counts as functional, organism-based.
Series [6] relates to Human immunodeficiency virus 2. Nature of the series: Antiviral activity against HIV2 ROD infected in human CEM/0 cells assessed as reduction in virus-induced giant cell formation incubated for 4 to 5 days. In kind it is functional, organism-based. The conditions noted are these: Human immunodeficiency virus 2, ISOLATE ROD, CCRF-CEM.
A short description of series [7]: Half life in pH 7.3 RPMI medium incubated at 37 degC by RP-18-HPLC method. It counts as physicochemical.
Series [8] is described as follows: Half life in pH 7.3 PBS incubated at 37 degC by RP-18-HPLC method. It counts as physicochemical.
Series [9] has as its system Human immunodeficiency virus 2. Nature of the series: Antiviral activity against HIV2 ROD infected in human thymidine kinase deficient CEM/TK- cells assessed as reduction in virus-induced giant cell formation incubated for 4 to 5 days. In kind it is functional, organism-based. The conditions noted are these: Human immunodeficiency virus 2, ISOLATE ROD.
Series [10] is described as follows: Drug metabolism in human CEM/0 cell extracts assessed as increase in NDP/NMP ratio after 10 hrs by HILIC-HPLC method. It counts as ADME. The conditions noted are these: ccrf-cem.
Series [11] is described as follows: Drug metabolism in human CEM/0 cell extracts assessed as increase in NDP/NMP ratio by HILIC-HPLC method. In kind it is ADME, cell-based. The conditions noted are these: ccrf-cem.

SMILES strings stand for the structures.

Regarding `CCCCCCCCCC(=O)Oc1ccc(COP(=O)(OCc2ccc(OC(=O)CCCC)cc2)OP(=O)(O)OC[C@H]2O[C@@H](n3cc(C)c(=O)[nH]c3=O)C[C@@H]2N=[N+]=[N-])cc1.N` (some centres undefined), the CC50 in series [1] was found to be 41000 nM. The t1/2 in series [2] is 19 min. The half-life in series [3] was 0.27 min; in series [4], 60 min; in series [7], 77 h; in series [8], 50 h. For the same compound, the values for the EC50 in [5], in series [6] and in [9] were 34 nM, 290 nM and 10000 nM, respectively.

On to `CCCCCCCCCC(=O)Oc1ccc(COP(=O)(OCc2ccc(OC(C)=O)cc2)OP(=O)(O)OC[C@H]2O[C@@H](n3cc(C)c(=O)[nH]c3=O)C[C@@H]2N=[N+]=[N-])cc1.N` (some centres undefined), for which, in series [10], the Drug metabolism entry was “metabolite_detected”. The CC50 in series [1] is 20000 nM. The half-life in [3] is 0.45 min; in series [4], 2.4 min; in series [7], 19 h; in series [8], 35 h. The EC50 in series [5] is 16 nM; in series [6], 140 nM; in series [9], more than 10000 nM.

`CCCCCCCCCCCC(=O)Oc1ccc(COP(=O)(OCc2ccc(OC(C)=O)cc2)OP(=O)(O)OC[C@H]2O[C@@H](n3cc(C)c(=O)[nH]c3=O)C[C@@H]2N=[N+]=[N-])cc1.N` (some centres undefined): the CC50 in [1] came out at 18000 nM. Moreover, the t1/2 in series [2] is on record as 28 min. Besides, the half-life was 0.19 min in series [3], 6.6 min in [4] and 32 h in series [8]. Also, the EC50 in [5] was determined as 42 nM; in series [6], 80 nM; in series [9], 10000 nM.

Take `CCCCCCCCCCCC(=O)Oc1ccc(COP(=O)(OCc2ccc(OC(=O)CCCC)cc2)OP(=O)(O)OC[C@H]2O[C@@H](n3cc(C)c(=O)[nH]c3=O)C[C@@H]2N=[N+]=[N-])cc1.N` (some centres undefined): in series [1], the CC50 turned out to be 36000 nM. The t1/2 in series [2] is 38 min. Also, the half-life in [3] was 1.2 min; in series [4] it was 99 min; in [8], 63 h. In addition, the EC50 in series [5] came to 13 nM; in [6], 60 nM; in series [9] it was 8160 nM.

On to `CCCCCCCC(=O)Oc1ccc(COP(=O)(OCc2ccc(OC(=O)CCCC)cc2)OP(=O)(O)OC[C@H]2O[C@@H](n3cc(C)c(=O)[nH]c3=O)C[C@@H]2N=[N+]=[N-])cc1.N` (some centres undefined), for which, in series [1], the CC50 is 73000 nM. Further, the t1/2 in series [2] was 15 min. Moreover, the values for the half-life in series [3], in series [4] and in series [8] were 0.27 min, 49.8 min and 46 h, respectively. The EC50 was 36 nM in series [5], 70 nM in series [6] and more than 10000 nM in series [9].

Turning to `CCCCCCCC(=O)Oc1ccc(COP(=O)(OCc2ccc(OC(C)=O)cc2)OP(=O)(O)OC[C@H]2O[C@@H](n3cc(C)c(=O)[nH]c3=O)C[C@@H]2N=[N+]=[N-])cc1.N` (some centres undefined), the CC50 in series [1] is 29000 nM. Besides, the half-life in series [3] was 0.21 min; in [4] it was 1.2 min; in series [8] it was 33 h. The values for the concentration for a half-maximal effect (EC50) in series [5], in series [6] and in series [9] were 42 nM, 160 nM and more than 10000 nM, respectively.

Take `CCCCCCC(=O)Oc1ccc(COP(=O)(OCc2ccc(OC(=O)CCCCCC)cc2)OP(=O)(O)OC[C@H]2O[C@@H](n3cc(C)c(=O)[nH]c3=O)C[C@@H]2N=[N+]=[N-])cc1.N`: the Drug metabolism entry in series [11] is given as “metabolite_detected”. Besides, the CC50 in [1] was determined as 47000 nM. In addition, the EC50 in series [5] was 16 nM; in series [6], 58 nM; in series [9], more than 10000 nM.

As to `CCCCC(=O)Oc1ccc(COP(=O)(OCc2ccc(OC(=O)CCCC)cc2)OP(=O)(O)OC[C@H]2O[C@@H](n3cc(C)c(=O)[nH]c3=O)C[C@@H]2N=[N+]=[N-])cc1.N`, in series [11], the Drug metabolism entry is recorded as “metabolite_detected”. Further, the CC50 in series [1] turned out to be 60000 nM. In addition, the EC50 was 11 nM in series [5], 54 nM in [6] and more than 10000 nM in series [9].
